Results reported in patent US10092590B2, “Composition of HMB and ATP and methods of use” (Metabolic Technologies, Inc., priority 2012, dated 2018).

Legend:
cortisol = experiment: Serum cortisol, ELISA; assay type: in vivo, human; conditions: week 9 (overreaching); mean ± SEM
Protocol: (§1) Prior to the study, participants were randomly assigned to receive either 3 g per day of HMB Free Acid (HMB) (combined with food-grade orange flavors and sweeteners), 400 mg per day of ATP (PEAK ATP®; TSI, Inc.), a combination of both 3 g of HMB and 400 mg per day of ATP, or a placebo (food-grade orange flavors and sweeteners) divided equally into three servings daily with the first serving given 30 minutes prior to exercise and the remaining two servings daily with the mid-day and evening meals. On the non-training days participants were instructed to consume one serving with each of three separate meals. The supplementation was continued daily throughout the training and testing protocols. Each serving was formulated with 1 gram of HMB free acid to account for fill and emptying variation and achieve a minimum effective dosage of 0.800 grams. This dosage would be equivalent to a 1 gram Ca-HMB dosage. […]
(§2) Samples were thawed one time and analyzed in duplicate for each analyte. […] All hormones were measured in the same assay on the same day to avoid compounded interassay variance. […] Serum creatine kinase (CK) was measured using colorimetric procedures at 340 nm (Diagnostics Chemicals, Oxford, Conn.). Twenty-four hour urine collections were made and 3-methylhistine was determined by previously described methods (Rathmacher et al 1992 and Wilson et al, 2013).

total testosterone = experiment: Serum total testosterone, ELISA; assay type: in vivo, human; conditions: week 9 (overreaching); mean ± SEM
Protocol: as §1, §2

creatine kinase (CK) = experiment: Serum creatine kinase (muscle damage), colorimetric; assay type: in vivo, human; conditions: week 9 (overreaching); mean ± SEM
Protocol: as §1, §2

[1] = tested on: skeletal muscle protein synthesis; conditions: acute ingestion of 2.4 grams; cited from earlier work
[2] = Body composition by dual x-ray absorptiometry (weight, lean body mass, fat); assay type: in vivo, human
[3] = Skeletal muscle hypertrophy, ultrasonography quadriceps muscle thickness (VL and VI); assay type: in vivo, human; conditions: week 8 of study
[4] = Perceived Recovery Status (PRS) scale; assay type: in vivo, human; conditions: over the 12-week study
Protocol: Prior to the study, participants were randomly assigned to receive either 3 g per day of HMB Free Acid (HMB) (combined with food-grade orange flavors and sweeteners), 400 mg per day of ATP (PEAK ATP®; TSI, Inc.), a combination of both 3 g of HMB and 400 mg per day of ATP, or a placebo (food-grade orange flavors and sweeteners) divided equally into three servings daily with the first serving given 30 minutes prior to exercise and the remaining two servings daily with the mid-day and evening meals. On the non-training days participants were instructed to consume one serving with each of three separate meals. The supplementation was continued daily throughout the training and testing protocols. Each serving was formulated with 1 gram of HMB free acid to account for fill and emptying variation and achieve a minimum effective dosage of 0.800 grams. This dosage would be equivalent to a 1 gram Ca-HMB dosage.
Perceived Recovery Status (PRS) scale was measured at weeks 0, 4, 8, 9, 10, and 12 to assess subjective recovery during the training phases. The PRS scale consists of values between 0-10, with 0-2 being very poorly recovered and with anticipated declines in performance, 4-6 being low to moderately recovered and expected similar performance, and 8-10 representing high perceived recovery with expected increases in performance.

SMILES | Cortisol (cortisol) | Total Testosterone (total testosterone) | CK (creatine kinase (CK)) | decrease in protein breakdown [1] | increase in skeletal muscle protein synthesis [1] | DXA LBM ([2]; week 4 of study) | DXA Fat ([2]; week 8 of study) | DXA LBM ([2]; week 8 of study) | Quad (quadriceps muscle thickness) [3] | effect on PRS [4]
CC(C)(O)CC(=O)O [HMB-FA, β-hydroxy-β-methylbutyric acid] | 19.6 ± 1.1 µg/dL | 752 ± 61 ng/dL | 288 ± 18 IU/L | −56% | +70% | 69.2 ± 2.7 kg | 15.9 ± 1.5 % | 71.3 ± 2.7 kg | 56.0 ± 1.4 mm | –
Nc1ncnc2c1ncn2[C@@H]1O[C@H](COP(=O)(O)OP(=O)(O)OP(=O)(O)O)[C@@H](O)[C@H]1O [ATP, Adenosine-5′-triphosphate] | – | – | – | – | – | – | – | – | – | no main effect
